From patent publication EP1584686A1, “Progenitor cell preservation factors and related methods and products” (ImClone Systems Incorporated, priority 1999, dated 2001)
Each block holds one compound with its values, some of them ahead of it.

Tests used:
Dl-FRIL = biological target: T1, Dl-FRIL (Lablab purpureus, UniProt Q9ZTA9); conditions: Mo et al., Glycobiology 9:173-179,1999; cited from earlier work
T1 sequence (Q9ZTA9 9-272): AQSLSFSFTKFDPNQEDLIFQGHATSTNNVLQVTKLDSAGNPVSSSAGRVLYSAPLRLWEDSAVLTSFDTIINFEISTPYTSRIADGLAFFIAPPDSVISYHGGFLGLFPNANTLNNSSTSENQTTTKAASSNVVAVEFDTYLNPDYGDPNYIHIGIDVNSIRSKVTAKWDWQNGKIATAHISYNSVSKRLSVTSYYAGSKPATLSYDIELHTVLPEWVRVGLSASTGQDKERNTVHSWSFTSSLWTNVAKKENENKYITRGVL

mice = conditions: single dose 150 mg/kg; Lerner and Harrison 1990; cited from earlier work
[1] = biological target: FLT3 receptor on FLT3-transfected 3T3 cells (chimeric murine FLT3/human Fms receptor or full length human receptor, not told apart); test: cell-based or functional assay

Compound: OC[C@H]1O[C@H](O[C@H]2O[C@H](CO)[C@@H](O)[C@H](O)[C@H]2O)[C@H](O)[C@@H](O)[C@@H]1O [α,α-trehalose]
potency greater than mannose (Dl-FRIL): 3.6 fold

Compound: O=c1[nH]cc(F)c(=O)[nH]1 [5-FU, 5-fluorouracil]
reduction of bone marrow cellularity (mice): > 90%

Specific Activity (u/mg) in the Flt3 3T3 assay, after the Superdex 75 step [1]: 244000 units/mg
Compound: Pv-FRIL (Phaseolus vulgaris FRIL), native, purified from PHA-LCM or from red kidney bean extract
